Measured values taken from US8952024B2, “Herbicidal pyrimidone derivatives” (E I du Pont de Nemours and Company, priority 2009, dated 2015).

Tests used:
Experiment in all cases: Test D pre-/postemergence plant response
Format in all cases: in vivo
[1] = test system: goosegrass (Eleusine indica)
Procedure, shortened: (§1)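 Seeds were sown in a loam–sand blend and sprayed preemergence with compound in a non-phytotoxic solvent mixture containing surfactant; plants at 2–18 cm (1- to 4-leaf stage) received the same formulation postemergence. After 14 to 21 days in a greenhouse, injury was rated visually against untreated controls (0 = no effect, 100 = complete control).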

[2] = test system: ragweed (common ragweed, Ambrosia elatior)
Procedure, shortened: as §1

[3] = test system: dallisgrass (Paspalum dilatatum)
Procedure, shortened: as §1

[4] = test system: Russian thistle (Salsola kali)
Procedure, shortened: as §1

[5] = test system: bluegrass (annual bluegrass, Poa annua)
Procedure, shortened: as §1

[6] = test system: dayflower (Virginia (VA) dayflower, Commelina virginica)
Procedure, shortened: as §1

[7] = test system: mallow (common mallow, Malva sylvestris)
Procedure, shortened: as §1

[8] = test system: morningglory (pitted morningglory, Ipomoea lacunosa)
Procedure, shortened: as §1

[9] = test system: bermudagrass (Cynodon dactylon)
Procedure, shortened: as §1

[10] = test system: large crabgrass (Digitaria sanguinalis)
Procedure, shortened: as §1

[11] = test system: chickweed (common chickweed, Stellaria media); conditions: Postemergence
Procedure, shortened: as §1

[12] = test system: quackgrass (Elytrigia repens)
Procedure, shortened: as §1

[13] = test system: purslane (common purslane, Portulaca oleracea)
Procedure, shortened: as §1

[14] = test system: barnyardgrass (Echinochloa crus-galli)
Procedure, shortened: as §1

[15] = test system: signalgrass (broadleaf signalgrass, Brachiaria platyphylla)
Procedure, shortened: as §1

[16] = test system: black mustard (Brassica nigra)
Procedure, shortened: as §1

[17] = test system: sandbur (southern sandbur, Cenchrus echinatus)
Procedure, shortened: as §1

[18] = test system: itchgrass (Rottboellia cochinchinensis)
Procedure, shortened: as §1

[19] = Postemergence, 31 g ai/ha, scale 0 to 100
[20] = Postemergence, 62 g ai/ha, scale 0 to 100 (0 no effect, 100 complete control)
[21] = Postemergence, 125 g ai/ha, scale 0 to 100 (0 no effect, 100 complete control)
[22] = Postemergence, 16 g ai/ha, scale 0 to 100
[23] = Preemergence, 16 g ai/ha, scale 0 to 100, 0 no effect, 100 complete control
[24] = Preemergence, 31 g ai/ha, scale 0 to 100 (0 no effect, 100 complete control)
[25] = Preemergence, 62 g ai/ha, scale 0 to 100
[26] = Preemergence, 125 g ai/ha, scale 0 to 100
[27] = Preemergence, rate not given, scale 0 to 100, 0 no effect, 100 complete control
[28] = Postemergence, 31 g ai/ha, scale 0 to 100 (0 no effect, 100 complete control)

## COCCn1c(-c2cccc(C)c2)ncc(C(=O)C2=C(O)C3CCC(C3)C2=O)c1=O (stereo not shown) [Compound 233]
[1]; [19]
  Plant response rating, Goosegrass: 50
[1]; [20]
  Plant response rating, Goosegrass: 60
[1]; [21]
  Plant response rating, Goosegrass: 65
[1]; [22]
  Plant response rating, Goosegrass: 40
[1]; [23]
  Plant response rating, Goosegrass: 70
[1]; [24]
  Plant response rating, Goosegrass: 95
[1]; [25]
  Plant response rating, Goosegrass: 98
[1]; [26]
  Plant response rating, Goosegrass: 100
[2]; [19]
  Plant response rating, Ragweed: 75
[2]; [20]
  Plant response rating, Ragweed: 75
[2]; [21]
  Plant response rating, Ragweed: 98
[2]; [22]
  Plant response rating, Ragweed: 65
[2]; [23]
  Plant response rating, Ragweed: 50
[2]; [24]
  Plant response rating, Ragweed: 70
[2]; [26]
  Plant response rating, Ragweed: 98
[2]; [27]
  Plant response rating, Ragweed: 95
[3]; [19]
  Plant response rating, Dallisgrass: 10
[3]; [20]
  Plant response rating, Dallisgrass: 10
[3]; [21]
  Plant response rating, Dallisgrass: 35
[3]; [22]
  Plant response rating, Dallisgrass: 0
[3]; [23]
  Plant response rating, Dallisgrass: 0
[3]; [24]
  Plant response rating, Dallisgrass: 0
[3]; [25]
  Plant response rating, Dallisgrass: 0
[3]; [26]
  Plant response rating, Dallisgrass: 35
[4]; [21]
  Plant response rating, Russian Thistle: 10
[4]; [22]
  Plant response rating, Russian Thistle: 0
[4]; [23]
  Plant response rating, Russian Thistle: 50
[4]; [24]
  Plant response rating, Russian Thistle: 65
[4]; [26]
  Plant response rating, Russian Thistle: 100
[4]; [27]
  Plant response rating, Russian Thistle: 75
[5]; [28]
  Plant response rating, Bluegrass: 0
[5]; [20]
  Plant response rating, Bluegrass: 0
[5]; [21]
  Plant response rating, Bluegrass: 0
[5]; [22]
  Plant response rating, Bluegrass: 0
[5]; [23]
  Plant response rating, Bluegrass: 0
[5]; [24]
  Plant response rating, Bluegrass: 0
[5]; [25]
  Plant response rating, Bluegrass: 25
[5]; [26]
  Plant response rating, Bluegrass: 40
[6]; [19]
  Plant response rating, Dayflower, VA: 35
[6]; [20]
  Plant response rating, Dayflower, VA: 35
[6]; [21]
  Plant response rating, Dayflower, VA: 60
[6]; [22]
  Plant response rating, Dayflower, VA: 15
[6]; [23]
  Plant response rating, Dayflower, VA: 0
[6]; [24]
  Plant response rating, Dayflower, VA: 80
[6]; [25]
  Plant response rating, Dayflower, VA: 100
[6]; [26]
  Plant response rating, Dayflower, VA: 100
[7]; [19]
  Plant response rating, Mallow: 0
[7]; [20]
  Plant response rating, Mallow: 0
[7]; [21]
  Plant response rating, Mallow: 0
[7]; [22]
  Plant response rating, Mallow: 0
[7]; [23]
  Plant response rating, Mallow: 0
[7]; [24]
  Plant response rating, Mallow: 0
[7]; [25]
  Plant response rating, Mallow: 0
[7]; [26]
  Plant response rating, Mallow: 60
[8]; [19]
  Plant response rating, Morningglory: 60
[8]; [20]
  Plant response rating, Morningglory: 70
[8]; [21]
  Plant response rating, Morningglory: 70
[8]; [22]
  Plant response rating, Morningglory: 50
[8]; [23]
  Plant response rating, Morningglory: 0
[8]; [24]
  Plant response rating, Morningglory: 80
[8]; [25]
  Plant response rating, Morningglory: 95
[8]; [26]
  Plant response rating, Morningglory: 95
[9]; [28]
  Plant response rating, Bermudagrass: 70
[9]; [20]
  Plant response rating, Bermudagrass: 70
[9]; [21]
  Plant response rating, Bermudagrass: 70
[9]; [22]
  Plant response rating, Bermudagrass: 70
[9]; [23]
  Plant response rating, Bermudagrass: 5
[9]; [24]
  Plant response rating, Bermudagrass: 5
[9]; [25]
  Plant response rating, Bermudagrass: 85
[9]; [26]
  Plant response rating, Bermudagrass: 85
[10]; [19]
  Plant response rating, Crabgrass, Large: 40
[10]; [20]
  Plant response rating, Crabgrass, Large: 50
[10]; [21]
  Plant response rating, Crabgrass, Large: 60
[10]; [22]
  Plant response rating, Crabgrass, Large: 20
[10]; [23]
  Plant response rating, Crabgrass, Large: 0
[10]; [24]
  Plant response rating, Crabgrass, Large: 5
[10]; [25]
  Plant response rating, Crabgrass, Large: 25
[10]; [26]
  Plant response rating, Crabgrass, Large: 90
[11]; 31 g ai/ha, scale 0 to 100
  Plant response rating, Chickweed: 50
[11]; 125 g ai/ha, scale 0 to 100 (0 no effect, 100 complete control)
  Plant response rating, Chickweed: 60
[12]; [19]
  Plant response rating, Quackgrass: 0
[12]; [20]
  Plant response rating, Quackgrass: 10
[12]; [21]
  Plant response rating, Quackgrass: 25
[12]; [22]
  Plant response rating, Quackgrass: 0
[12]; [23]
  Plant response rating, Quackgrass: 0
[12]; [24]
  Plant response rating, Quackgrass: 0
[12]; [26]
  Plant response rating, Quackgrass: 0
[13]; [19]
  Plant response rating, Purslane: 30
[13]; [20]
  Plant response rating, Purslane: 30
[13]; [21]
  Plant response rating, Purslane: 40
[13]; [22]
  Plant response rating, Purslane: 30
[13]; [23]
  Plant response rating, Purslane: 0
[13]; [24]
  Plant response rating, Purslane: 0
[13]; [25]
  Plant response rating, Purslane: 100
[13]; [26]
  Plant response rating, Purslane: 100
[14]; [28]
  Plant response rating, Barnyardgrass: 75
[14]; [20]
  Plant response rating, Barnyardgrass: 85
[14]; [21]
  Plant response rating, Barnyardgrass: 85
[14]; [22]
  Plant response rating, Barnyardgrass: 65
[14]; [23]
  Plant response rating, Barnyardgrass: 0
[14]; [24]
  Plant response rating, Barnyardgrass: 0
[14]; [25]
  Plant response rating, Barnyardgrass: 5
[14]; [26]
  Plant response rating, Barnyardgrass: 40
[15]; [19]
  Plant response rating, Signalgrass: 5
[15]; [20]
  Plant response rating, Signalgrass: 25
[15]; [21]
  Plant response rating, Signalgrass: 35
[15]; [22]
  Plant response rating, Signalgrass: 0
[15]; [23]
  Plant response rating, Signalgrass: 0
[15]; [24]
  Plant response rating, Signalgrass: 0
[15]; [26]
  Plant response rating, Signalgrass: 35
[16]; [28]
  Plant response rating, Black Mustard: 50
[16]; [20]
  Plant response rating, Black Mustard: 50
[16]; [21]
  Plant response rating, Black Mustard: 100
[16]; [22]
  Plant response rating, Black Mustard: 20
[16]; [23]
  Plant response rating, Black Mustard: 0
[16]; [24]
  Plant response rating, Black Mustard: 0
[16]; [25]
  Plant response rating, Black Mustard: 20
[16]; [26]
  Plant response rating, Black Mustard: 65
[17]; [19]
  Plant response rating, Sandbur: 65
[17]; [20]
  Plant response rating, Sandbur: 70
[17]; [21]
  Plant response rating, Sandbur: 75
[17]; [22]
  Plant response rating, Sandbur: 30
[17]; [23]
  Plant response rating, Sandbur: 0
[17]; [24]
  Plant response rating, Sandbur: 0
[17]; [26]
  Plant response rating, Sandbur: 85
[18]; [19]
  Plant response rating, Itchgrass: 65
[18]; [20]
  Plant response rating, Itchgrass: 70
[18]; [21]
  Plant response rating, Itchgrass: 80
[18]; [22]
  Plant response rating, Itchgrass: 50
[18]; [23]
  Plant response rating, Itchgrass: 0
[18]; [24]
  Plant response rating, Itchgrass: 0
[18]; [25]
  Plant response rating, Itchgrass: 0
[18]; [26]
  Plant response rating, Itchgrass: 20
